Results taken from patent US20110177061A1, “METHODS OF TREATING AND PREVENTING NEUROLOGICAL DISORDERS USING DOCOSAHEXAENOIC ACID” (MARTEK BIOSCIENCES CORPORATION, priority 2009, published 2011).
Entries after “also recorded” stand apart in the source; their conditions may differ.

Legend:
[1] = system: human patients with mild to moderate Alzheimer's disease; test: Pre-planned secondary analysis of DHA treatment and ApoE4 allelic status, all outcome measures; type: in vivo
Procedure: (§1) A clinical trial was carried out to determine whether chronic DHA supplementation slows the progression of cognitive and functional decline in human patients with mild to moderate Alzheimer's disease.
(§2) In the study, 402 individuals with mild to moderate Alzheimer's disease participated for 18 months at sites throughout the United States. Participants were randomized so that 60% of participants received approximately 2 grams of DHA (divided into 4 capsules—2 capsules taken twice a day), while 40% of the participants received an identical placebo of corn/soy oil. The DHA soft-gel capsules used in the study were provided by Martek Biosciences Corporation, and contained a microbial oil of 55% DHA (as a percentage of total fatty acids) in triglyceride form, in addition to tocopherol and orange flavoring. The capsules contained no detectable EPA. The placebo was a 50/50 mixture of corn/soy oil and also included mixed tocopherols, ascorbyl, palmitate, orange flavoring, and orange masking agent.
A pre-planned secondary analysis was also carried out examining the effect of DHA treatment and ApoE4 (E4) allelic status. […] This effect was also evident on the MMSE (−3.36±4.78 in DHA compared to 5.12±5.08 in placebo; p=0.034), but was not present on the CDR-SOB, the ADCS-ADL, or the NPI.

[2] = system: human patients with mild to moderate Alzheimer's disease; test: ADAS-cog (co-primary outcome) in clinical trial; type: in vivo
Procedure: as §2, with “A clinical trial was carried out to determine whether chronic DHA supplementation slows the progression of cognitive and functional decline in human patients with mild to moderate Alzheimer's disease. In” for “In”, “agent. Following the eligibility assessment, 238 of the 402 patients were randomly assigned to the DHA treatment group and 164 patients to the placebo group. Of the 238 patient DHA treatment group, 171 patients completed the full 18 month course of treatment. Of the 164 placebo group, 124 patients completed the full 18 month course of treatment. Various parameters were measured at baseline and at every 6 months through the conclusion of the trial at 18 months.” for “agent.”

[3] = system: human patients with mild to moderate Alzheimer's disease; test: ADCS-ADL (secondary outcome) in clinical trial; type: in vivo
Procedure: as §2, with “A clinical trial was carried out to determine whether chronic DHA supplementation slows the progression of cognitive and functional decline in human patients with mild to moderate Alzheimer's disease. In” for “In”, “agent. Following the eligibility assessment, 238 of the 402 patients were randomly assigned to the DHA treatment group and 164 patients to the placebo group. Of the 238 patient DHA treatment group, 171 patients completed the full 18 month course of treatment. Of the 164 placebo group, 124 patients completed the full 18 month course of treatment. Various parameters were measured at baseline and at every 6 months through the conclusion of the trial at 18 months.” for “agent.”

[4] = system: human patients with mild to moderate Alzheimer's disease; test: CDR-SOB (co-primary outcome) in clinical trial; type: in vivo
Procedure: as §2, with “A clinical trial was carried out to determine whether chronic DHA supplementation slows the progression of cognitive and functional decline in human patients with mild to moderate Alzheimer's disease. In” for “In”, “agent. Following the eligibility assessment, 238 of the 402 patients were randomly assigned to the DHA treatment group and 164 patients to the placebo group. Of the 238 patient DHA treatment group, 171 patients completed the full 18 month course of treatment. Of the 164 placebo group, 124 patients completed the full 18 month course of treatment. Various parameters were measured at baseline and at every 6 months through the conclusion of the trial at 18 months.” for “agent.”

[5] = system: human patients with mild to moderate Alzheimer's disease; test: MRI sub-study, brain volume change; type: in vivo
Procedure: as §2, with “A clinical trial was carried out to determine whether chronic DHA supplementation slows the progression of cognitive and functional decline in human patients with mild to moderate Alzheimer's disease. In” for “In”

[6] = Plasma phospholipid DHA levels in clinical trial; type: in vivo, human; details: DHA treatment group
Description: as §2
(§3) Various parameters were measured at baseline and at every 6 months through the conclusion of the trial at 18 months.
(§4) Plasma phospholipid fatty acid levels were determined using established methods, with modifications for cerebrospinal fluid analysis (Arterburn et al., 2007, Lipids 42(11):1011-1024; Arterburn et al., 2008, J Am Diet Assoc. 108(7):1204-1209). The fatty acid profiles were expressed as a percent of the total μg of fatty acid (weight percent).

[7] = system: human patients with mild to moderate Alzheimer's disease; test: NPI (secondary outcome) in clinical trial; type: in vivo
Procedure: as §2, with “A clinical trial was carried out to determine whether chronic DHA supplementation slows the progression of cognitive and functional decline in human patients with mild to moderate Alzheimer's disease. In” for “In”, “agent. Following the eligibility assessment, 238 of the 402 patients were randomly assigned to the DHA treatment group and 164 patients to the placebo group. Of the 238 patient DHA treatment group, 171 patients completed the full 18 month course of treatment. Of the 164 placebo group, 124 patients completed the full 18 month course of treatment. Various parameters were measured at baseline and at every 6 months through the conclusion of the trial at 18 months.” for “agent.”

[8] = system: human patients with mild to moderate Alzheimer's disease; test: Vital signs and lab results in clinical trial; type: in vivo; details: 18 month trial
Procedure: as §1, §2, §3

[9] = Cerebrospinal fluid (CSF) DHA levels in CSF sub-study; type: in vivo, human
Procedure: All subjects without contraindication to cerebrospinal fluid (CSF) exam (e.g., anticoagulation) were invited to participate in the CSF study. In these subjects, lumbar puncture was performed in the morning after an overnight fast.
as §4

[10] = system: human patients with mild to moderate Alzheimer's disease; test: MMSE (secondary outcome) in clinical trial; type: in vivo
Procedure: as §2, with “A clinical trial was carried out to determine whether chronic DHA supplementation slows the progression of cognitive and functional decline in human patients with mild to moderate Alzheimer's disease. In” for “In”, “agent. Following the eligibility assessment, 238 of the 402 patients were randomly assigned to the DHA treatment group and 164 patients to the placebo group. Of the 238 patient DHA treatment group, 171 patients completed the full 18 month course of treatment. Of the 164 placebo group, 124 patients completed the full 18 month course of treatment. Various parameters were measured at baseline and at every 6 months through the conclusion of the trial at 18 months.” for “agent.”

[11] = all subjects, LME model, GEE or ANCOVA

Compound: CC/C=C\C/C=C\C/C=C\C/C=C\C/C=C\C/C=C\CCC(=O)O [DHA, (all-Z)-4,7,10,13,16,19-docosahexaenoic acid]
- Benefit in reducing decline in cognitive ability in AD subjects negative for the ApoE4 allele ([1]; ApoE4-negative subjects afflicted with AD): significant benefit
- DHA treatment effect on any outcome measure in the E4-positive group ([1]; ApoE4-positive subjects): no DHA treatment effect
- ADAS-cog points change over 18 months, E4-negative group ([2]; ApoE4-negative, 61 DHA subjects, placebo 10.11±10.58 (48 subjects), p=0.028): 6.23±8.58 points
- Difference DHA vs placebo in 12 month ADAS scores ([2]; Wilcoxan rank p=0.027, FIG. 1): modest difference
- Difference DHA vs placebo on ADAS-cog (rate of change) ([2]; all subjects, LME model, 18 months): did not differ; also recorded: no significant difference
- ADAS-cog points change over 18 months ([2]; all subjects, unadjusted, placebo 7.98±9.84, p=0.41): 8.27±8.9 points
- ADAS-cog decline in ApoE4 negative subjects with MMSE >21 compared to MMSE ≦21 ([2]; post hoc analysis, FIGS. 7A and 7B): significantly less decline; also recorded: more pronounced
- Difference in the effect of DHA administration on ADAS-cog between ApoE4-positive and ApoE4-negative subjects ([2]; pre-specified sub-group analysis, FIGS. 6A and 6B): statistically significant difference
- DHA treatment effect on ADCS-ADL in the E4-negative group ([3]; ApoE4-negative subjects): not present
- ADCS-ADL points change over 18 months (rate of decline) ([3]; all subjects, LME analysis, placebo 10.43±11.74, p=0.38): 11.51±13.23 points
- Difference DHA vs placebo on ADCS-ADL [3, 11]: no significant difference
- DHA treatment effect on CDR-SOB in the E4-negative group ([4]; ApoE4-negative subjects): not present
- Difference DHA vs placebo on CDR-SOB (rate of change) ([4]; all subjects, LME model, GEE or ANCOVA, ITT or per protocol): also did not differ; also recorded: no significant difference
- CDR-SOB points change over 18 months ([4]; all subjects, placebo 2.87±2.93, p=0.68): 2.93±2.83 points
- Absolute volume change over 18 months, total ventricular volume ([5]; MRI sub-study n=53 DHA, placebo 8.1±5.9, p=0.55): 9.1±5.0 cm^3
- Absolute volume change over 18 months, total brain ([5]; MRI sub-study n=53 DHA, placebo 24.0±14.6, p=0.79): 24.7±12.3 cm^3
- Absolute volume change over 18 months, right hippocampus ([5]; MRI sub-study n=53 DHA, placebo 148±109, p=0.29): 176±128 mm^3
- Absolute volume change over 18 months, left hippocampus ([5]; MRI sub-study n=53 DHA, placebo 175±135, p=0.17): 141±104 mm^3
- Effect of DHA treatment on absolute amount of brain volume change over 18 months ([5]; MRI sub-study, ANCOVA, total brain, hippocampus, total ventricular volume): no evidence of an effect
- Effect of DHA on rates of brain atrophy among ApoE4 negative subjects ([5]; MRI sub-study, n=21 DHA, n=17 placebo): Neither was an effect of DHA seen
- Plasma phospholipid DHA ([6]; approx. 2 g DHA/day oral, 6 months): 9.1 wt %
- Plasma phospholipid DHA ([6]; approx. 2 g DHA/day oral, 12 months): 10.23 wt %
- Plasma phospholipid DHA ([6]; approx. 2 g DHA/day oral, 18 months, p<0.001): 9.77 wt %
- Plasma phospholipid DHA ([6]; baseline (before treatment)): 3.18 wt %
- DHA treatment effect on NPI in the E4-negative group ([7]; ApoE4-negative subjects): not present
- NPI points change over 18 months ([7]; all subjects, LME analysis, placebo 5.09±15.08, p=0.11): 2.93±13.62 points
- Difference DHA vs placebo on NPI [7, 11]: no significant difference
- Cholesterol level change [8]: modest increase
- Diastolic blood pressure change [8]: modest decline
- HDL level change [8]: no change
- Heart rate change [8]: modest decline
- LDL level change [8]: modest increase
- Systolic blood pressure change [8]: no change
- Triglycerides change [8]: modest decline
- Weight change [8]: no change
- CSF DHA ([9]; DHA supplemented group n=29, 18 months, p<0.001): 3.45 wt %
- CSF DHA ([9]; DHA supplemented group n=29, baseline (before treatment)): 2.53 wt %
- MMSE change, E4-negative group ([10]; ApoE4-negative, placebo printed 5.12±5.08, p=0.034): −3.36±4.78
- MMSE points change from baseline to 18 months ([10]; all subjects, ANCOVA, placebo −4.0±4.7, p=0.88): −3.70±4.95 points
- Difference DHA vs placebo on MMSE ([10]; all subjects, after 18 months of treatment): no significant difference
